Experimental data published in patent publication US20230293644A1, “ANTI-INFLAMMATORY PEPTIDES AND COMPOSITION COMPRISING THE SAME” (Gemvax & KAEL Co., Ltd., priority 2012, published 2023).

System: TNF-α
Assay: Screening of TNF-α inhibitory effect, LPS-stimulated PBMC-derived monocytes (Example 2)
Format: cell-based, human
Details: 4 uM peptide, 2 hrs, LPS 10 ng/ml; for TNF-α inhibiting effect compared to the group treated with LPS and estrogen: estrogen 20 nM
Experimental: PBMC (peripheral blood mononuclear cells) layer was separated from blood samples (50 ml) collected in healthy subjects using Biocoll Separating Solution (Biochrom AG, Berlin, Germany). The collected PBMC were enriched in RPMI 1640 medium containing 20% human serum for 30 mins, and then transferred to 100-mm polystyeren cell culture plate coated with human serum for incubation for 2 hrs at 37° C., 5% CO^2 incubator. Monocytes were detached from the bottom of the plate using cold PBS, and incubated to reach the number of 1 × 10^5 cell/well in 96-well plate with RPMI 1640 medium (supplemented with penicillinstreptomycin; […], human serum; 20%) over night.
ELISA was performed to find out how the peptides of the PEP RIA series influence TNF-α level. PBMC-derived monocytes were incubated to reach the number of 1 × 10^5 cells per well in a 96-well plate and then treated with LPS (lipopolysaccharide; 10 ng/ml, Sigma) for 2 hours. To the monocytes that were washed three times with PBS, OPTI-MEM culture medium was added to induce cell starvation for an hour, 4 µM of the peptide was taken out and incubated for 2 hours. There were three negative control groups. The first group was not treated with anything. The second group that was treated with estrogen (in this experiment, estradiol was used as a kind of estrogen). The third group was treated with LPS (10 ng/ml) or with LPS (10 ng/ml) as well as estrogen (20 nM). PEP1 that was confirmed to have TNF-α inhibiting activity was used as a positive control to measure TNF-α inhibiting activity. After incubation, TNF-α was measured by following the ELISA kit manual (R&D, Minneapolis, MN, USA). The details of quantification method can be found in Experiment 2.2 of Example 1.
Using the method stated above, Peptides with TNF-α inhibiting effect were screened. PBMC-derived monocytes were stimulated with LPS (10 ng/ml), which is endotoxin, for 2 hours and were induced to starve by adding OPTI-MEM for 1 hour. After that, 4 uM of 179 peptides were treated and incubated for 2 hrs. The amount of TNF-α in the cell culture medium was measured using ELISA, and the peptides with TNF-α inhibiting effect were screened by comparing to the negative and positive controls (FIG. 3 to FIG. 23).

Substance | TNF-α inhibiting effect compared to the control group treated with only LPS | TNF-α inhibiting effect compared to the group treated with LPS and estrogen
SEAEVRQHREARPALLTSRLRFIPK (listed as Homo sapiens) [SEQ ID NO: 10] | showed TNF-α inhibiting effect | showed TNF-α inhibiting effect
QHREARPALLTSRLRFIPKPDGLRPI (listed as Homo sapiens) [SEQ ID NO: 62] | showed TNF-α inhibiting effect | showed TNF-α inhibiting effect
RLR [SEQ ID NO: 173] | showed TNF-α inhibiting effect | showed TNF-α inhibiting effect
EVRQHREARPALLTSRLRFIPKPDGLR (listed as Homo sapiens) [SEQ ID NO: 45] | showed TNF-α inhibiting effect | –
LRFIPK (listed as Homo sapiens) [SEQ ID NO: 100] | showed TNF-α inhibiting effect | showed TNF-α inhibiting effect
AEVRQHREARPALLTSRLRFIPKPDGLR (listed as Homo sapiens) [SEQ ID NO: 56] | showed TNF-α inhibiting effect | showed TNF-α inhibiting effect
SRLRFI (listed as Homo sapiens) [SEQ ID NO: 166] | showed TNF-α inhibiting effect | showed TNF-α inhibiting effect
EARPALLTS (listed as Homo sapiens) [SEQ ID NO: 84] | showed TNF-α inhibiting effect | –
EARP (listed as Homo sapiens) [SEQ ID NO: 89] | showed TNF-α inhibiting effect | showed TNF-α inhibiting effect
LTSRLRFIPK (listed as Homo sapiens) [SEQ ID NO: 96] | showed TNF-α inhibiting effect | showed TNF-α inhibiting effect
LLTSR (listed as Homo sapiens) [SEQ ID NO: 150] | showed TNF-α inhibiting effect | –
ALLTSRL (listed as Homo sapiens) [SEQ ID NO: 141] | showed TNF-α inhibiting effect | –
EARPALLTSRL (listed as Homo sapiens) [SEQ ID NO: 82] | showed TNF-α inhibiting effect | showed TNF-α inhibiting effect
ELSEAEVRQHREARPALLTSRLRFIPK (listed as Homo sapiens) [SEQ ID NO: 12] | showed TNF-α inhibiting effect | –
RPALLTSRLRFIPK (listed as Homo sapiens) [SEQ ID NO: 92] | showed TNF-α inhibiting effect | –
IPK [SEQ ID NO: 103] | showed TNF-α inhibiting effect | showed TNF-α inhibiting effect
TSR [SEQ ID NO: 164] | showed TNF-α inhibiting effect | showed TNF-α inhibiting effect
EARPALLTSRLRF (listed as Homo sapiens) [SEQ ID NO: 80] | showed TNF-α inhibiting effect | showed TNF-α inhibiting effect
ARPAL (listed as Homo sapiens) [SEQ ID NO: 118] | showed TNF-α inhibiting effect | –
PALLTSRLRFI (listed as Homo sapiens) [SEQ ID NO: 131] | showed TNF-α inhibiting effect | –
RPALLTSRLRFI (listed as Homo sapiens) [SEQ ID NO: 105] | showed TNF-α inhibiting effect | –

Substance | TNF-α inhibiting effect compared to the control group treated with only LPS | TNF-α inhibiting effect compared to the group treated with LPS and estrogen
RFI [SEQ ID NO: 178] | showed TNF-α inhibiting effect | –
RFIPK (listed as Homo sapiens) [SEQ ID NO: 101] | showed TNF-α inhibiting effect | showed TNF-α inhibiting effect
EARPA (listed as Homo sapiens) [SEQ ID NO: 88] | showed TNF-α inhibiting effect | showed TNF-α inhibiting effect
LTS [SEQ ID NO: 158] | showed TNF-α inhibiting effect | –
RPALLTSR (listed as Homo sapiens) [SEQ ID NO: 124] | showed TNF-α inhibiting effect | –
ARPALLTSRLRFI (listed as Homo sapiens) [SEQ ID NO: 110] | showed TNF-α inhibiting effect | showed TNF-α inhibiting effect
AEVRQHREARPALLTSRLRFIPKPDGLRPI (listed as Homo sapiens) [SEQ ID NO: 58] | showed TNF-α inhibiting effect | –
TSRLRFIPK (listed as Homo sapiens) [SEQ ID NO: 97] | showed TNF-α inhibiting effect | showed TNF-α inhibiting effect
EVRQHREARPALLTSRLRFIPKPDGL (listed as Homo sapiens) [SEQ ID NO: 44] | showed TNF-α inhibiting effect | showed TNF-α inhibiting effect
FIPK (listed as Homo sapiens) [SEQ ID NO: 102] | showed TNF-α inhibiting effect | showed TNF-α inhibiting effect
HREARPALLTSRLRFIPKP (listed as Homo sapiens) [SEQ ID NO: 17] | showed TNF-α inhibiting effect | showed TNF-α inhibiting effect
HREARPALLTSRLRFIPKPD (listed as Homo sapiens) [SEQ ID NO: 18] | showed TNF-α inhibiting effect | showed TNF-α inhibiting effect
LRFIP (listed as Homo sapiens) [SEQ ID NO: 174] | showed TNF-α inhibiting effect | showed TNF-α inhibiting effect
EVRQHREARPALLTSRLRFIPKPD (listed as Homo sapiens) [SEQ ID NO: 42] | showed TNF-α inhibiting effect | showed TNF-α inhibiting effect
EARPALLTSRLRFIPKP (listed as Homo sapiens) [SEQ ID NO: 65] | showed TNF-α inhibiting effect | showed TNF-α inhibiting effect
RLRFIPK (listed as Homo sapiens) [SEQ ID NO: 99] | showed TNF-α inhibiting effect | showed TNF-α inhibiting effect
VRQHREARPALLTSRLRFIPKPDGL (listed as Homo sapiens) [SEQ ID NO: 35] | showed TNF-α inhibiting effect | –
ARPALLT (listed as Homo sapiens) [SEQ ID NO: 116] | showed TNF-α inhibiting effect | showed TNF-α inhibiting effect
RLRF (listed as Homo sapiens) [SEQ ID NO: 172] | showed TNF-α inhibiting effect | showed TNF-α inhibiting effect
EARPALLTSRLRFIPKPDGLRPIVN (listed as Homo sapiens) [SEQ ID NO: 72] | showed TNF-α inhibiting effect | showed TNF-α inhibiting effect
QHREARPALLTSRLRFIPKP (listed as Homo sapiens) [SEQ ID NO: 20] | showed TNF-α inhibiting effect | showed TNF-α inhibiting effect
